Source: patent US20100190980A1, “PYRAZINAMIDE COMPOUND” (Taisho Pharmaceutical Co., Ltd, priority 2007, published 2010)

Assays:
human liver GK = molecular target: T1, human liver GK (Homo sapiens, UniProt P35557); test: GK Activation Test; assay type: biochemical; settings: 4 mM 14C-labeled glucose; for EC50: concentration activating GK to 50% of the maximum activation value
T1 construct: GST (Glutathione S-transferase) (N); made in house; host or cells: Escherichia coli
T1 sequence (P35557 1-466 isoform P35557-2): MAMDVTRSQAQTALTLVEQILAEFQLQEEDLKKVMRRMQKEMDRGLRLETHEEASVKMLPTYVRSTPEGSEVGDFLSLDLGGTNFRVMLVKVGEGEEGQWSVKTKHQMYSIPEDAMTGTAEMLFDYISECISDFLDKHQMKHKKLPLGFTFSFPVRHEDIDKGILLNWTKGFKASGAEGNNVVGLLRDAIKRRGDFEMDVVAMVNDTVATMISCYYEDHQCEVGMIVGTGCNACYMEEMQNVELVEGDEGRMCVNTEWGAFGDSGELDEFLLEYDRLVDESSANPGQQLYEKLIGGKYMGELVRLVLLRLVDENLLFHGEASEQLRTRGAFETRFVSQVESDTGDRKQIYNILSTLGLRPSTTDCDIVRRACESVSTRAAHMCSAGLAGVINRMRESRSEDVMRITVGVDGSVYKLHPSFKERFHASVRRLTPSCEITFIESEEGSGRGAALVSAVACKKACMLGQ
Method: A GK activation by a test compound was tested by partially modifying the method of Irwin A. Rose et al. (J. Biol. Chem. 1964 January; 239: 12-7).
The enzyme source used in this assay was human liver GK, which was allowed to express by Escherichia coli as a fusion protein having GST (Glutathione S-transferase) added to the amino terminal and purified by Glutathione Sepharose 4B (Amersham Biosciences).
The test was performed by using flat-bottom 96-well plates (Sumitomo Bakelite Co., Ltd). To each of the wells of plates, a dimethyl sulfoxide (DMSO) solution of a test compound and DMSO serving as a control were added so as to obtain a final DMSO concentration of 1%. Furthermore, 25 mM Hepes-KOH (pH=7.1), 25 mM KCl, 2 mM MgCl2, 2 mM ATP, 4 mM ^14C-labeled glucose (Amersham Pharmacia) and 1 mM DTT (dithiothreitol) (these concentrations were final concentrations) were added. Finally, human liver GK was added so as to obtain 0.24 μg/well. The reaction was initiated and carried out at room temperature.
Twenty minutes later, AG1-X4 resin (BioRad), which was suspended with 25 mM Hepes-KOH (pH=7.1), was added and allowed to bind a reaction product, a labeled glucose-6-phosphate. The whole quantity was transferred to a multi-screen plate (Millipore) and the resin was washed with water. Thereafter, labeled glucose-6-phosphate bound to the resin was eluted with a 0.5 M NaCl solution. The activity of the labeled glucose-6-phosphate eluted was measured and used as an index of GK activity.
Regarding the GK activity of a control group in a well in which DMSO alone was added as 100%, the GK activity activated by the test compound to a maximum was indicated as the maximum activation value (Emax value). Furthermore, the concentration of a test compound required for activating GK activity to 50% of the maximum activation value was indicated as an EC50 value.

SD rats = test: Blood Glucose Level-Lowering Effect in SD rats; assay type: in vivo, rat; settings: oral, 0.5% methyl cellulose group = 100%
Method: The effect of the compound of the present invention to decrease blood glucose level was investigated by use of SD rats.
SD rats were raised by free-feeding. From the caudal vein of 8-week old […], blood was taken and centrifugally separated to obtain the plasma. A blood glucose level of the plasma was measured by glucose CII test Wako. The rats were divided into groups of 6 rats so as to have the same average blood glucose level. In an agent administration group, a compound suspended in a 0.5% aqueous methyl cellulose solution was orally administered to the rats; whereas, in a control group, a 0.5% aqueous methylcellulose solution was orally administered. At 30 minutes, 60 minutes, 120 minutes, 240 minutes, 360 minutes and 480 minutes after the administration, blood was taken from the caudal vein of each rat. The plasma was centrifugally recovered and a blood glucose level was measured by use of glucose CII test Wako. Furthermore, a plasma insulin concentration was measured by an ultrasensitive rat insulin measuring kit (Morinaga Institute of Biological Science, Inc.). The blood glucose levels at individual time points were plotted to obtain a graph showing a change of blood glucose level.
Regarding the blood glucose level of the 0.5% methyl cellulose administration group as 100%, the blood glucose level of SD rats administrated with Compound No. 2 was indicated. In a 3 mg/kg administration group, the blood glucose level was 59% at 1 hour, 71% at 2 hours and 76% at 4 hours. Whereas, in a 10 mg/kg administration group, the blood glucose level was 53% at 1 hour, 68% at 2 hours, and 75% at 4 hours.

Compound | EC50 (human liver GK) [nM] | further results
Cn1ccc(NC(=O)c2nc(Sc3nnc[nH]3)cnc2Sc2ccc(F)cc2)n1 [Compound No. 2, 3-[(4-fluorophenyl)sulfanyl]-N-(1-methyl-1H-pyrazol-3-yl)-6-(4H-1,2,4-triazol-3-ylsulfanyl)pyrazine-2-carboxamide] | 104 | blood glucose level (SD rats; 3 mg/kg, at 1 hour): 59%; blood glucose level (SD rats; 3 mg/kg, at 2 hours): 71%; blood glucose level (SD rats; 3 mg/kg, at 4 hours): 76%; blood glucose level (SD rats; 10 mg/kg, at 1 hour): 53%; blood glucose level (SD rats; 10 mg/kg, at 2 hours): 68%; blood glucose level (SD rats; 10 mg/kg, at 4 hours): 75%
Cn1ccc(NC(=O)c2nc(Sc3nnc[nH]3)cnc2SC2CCCCC2)n1 [Compound No. 5, 3-(cyclohexylsulfanyl)-N-(1-methyl-1H-pyrazol-3-yl)-6-(4H-1,2,4-triazol-3-ylsulfanyl)pyrazine-2-carboxamide] | 171 | –
O=C(Nc1cnccn1)c1nc(Sc2nnc[nH]2)cnc1Sc1ccc(F)cc1 [Compound No. 29, 3-[(4-fluorophenyl)sulfanyl]-N-(pyrazin-2-yl)-6-(4H-1,2,4-triazol-3-ylsulfanyl)pyrazine-2-carboxamide] | 89.5 | –
O=C(O)c1ccc(NC(=O)c2nc(Sc3nnc[nH]3)cnc2Sc2ccc(F)cc2)nc1 [Compound No. 35, 6-[({3-[(4-fluorophenyl)sulfanyl]-6-(4H-1,2,4-triazol-3-ylsulfanyl)pyrazin-2-yl}carbonyl)amino]pyridine-3-carboxylic acid] | 72.4 | –
Cn1ccc(NC(=O)c2nc(Sc3nncs3)cnc2Sc2ccc(F)cc2)n1 [Compound No. 41, 3-[(4-fluorophenyl)sulfanyl]-N-(1-methyl-1H-pyrazol-3-yl)-6-(1,3,4-thiadiazol-2-ylsulfanyl)pyrazine-2-carboxamide] | 311 | –
CSc1ccc(Sc2ncc(Sc3nnc(N)[nH]3)nc2C(=O)Nc2cnccn2)cc1 [Compound No. 51, 6-[(5-amino-4H-1,2,4-triazol-3-yl)sulfanyl]-3-{[4-(methylsulfanyl)phenyl]sulfanyl}-N-pyrazin-2-ylpyrazine-2-carboxamide] | 131 | –
Cc1nnc(Sc2cnc(Sc3ccc(S(C)(=O)=O)cc3)c(C(=O)Nc3ccn(C)n3)n2)[nH]1 [Compound No. 52, N-(1-methyl-1H-pyrazol-3-yl)-3-{[4-(methylsulfonyl)phenyl]sulfanyl}-6-[(5-methyl-4H-1,2,4-triazol-3-yl)sulfanyl]pyrazine-2-carboxamide] | 128 | Emax (human liver GK; GK activity of DMSO control = 100%, 2 mM ATP, read-out: Emax (maximum activation value)): 883%

Further lines, with some results ahead:

EC50 (human liver GK) [nM] | Compound | further results
110 | Cn1ccc(NC(=O)c2nc(Sc3nnc[nH]3)cnc2Sc2ccncc2)n1 [Compound No. 24, N-(1-methyl-1H-pyrazol-3-yl)-3-(pyridin-4-ylsulfanyl)-6-(4H-1,2,4-triazol-3-ylsulfanyl)pyrazine-2-carboxamide] | –
365 | O=C(NC1=NCCS1)c1nc(Sc2nnc[nH]2)cnc1Sc1ccc(F)cc1 [Compound No. 25, N-(4,5-dihydro-1,3-thiazol-2-yl)-3-[(4-fluorophenyl)sulfanyl]-6-(4H-1,2,4-triazol-3-ylsulfanyl)pyrazine-2-carboxamide] | –
397 | COCCn1ccc(NC(=O)c2nc(Sc3nnc(C)[nH]3)cnc2Sc2ccc(F)cc2)n1 [Compound No. 30, 3-[(4-fluorophenyl)sulfanyl]-N-[1-(2-methoxyethyl)-1H-pyrazol-3-yl]-6-[(5-methyl-4H-1,2,4-triazol-3-yl)sulfanyl]pyrazine-2-carboxamide] | –
117 | Cc1nnc(Sc2cnc(Sc3ccc(F)cc3)c(C(=O)Nc3ccn(C)n3)n2)[nH]1 [Compound No. 38, 3-[(4-fluorophenyl)sulfanyl]-N-(1-methyl-1H-pyrazol-3-yl)-6-[(5-methyl-4H-1,2,4-triazol-3-yl)sulfanyl]pyrazine-2-carboxamide] | –
59.4 | COc1ccc(Sc2ncc(Sc3nnc[nH]3)nc2C(=O)Nc2cnccn2)cc1 [Compound No. 46, 3-[(4-methoxyphenyl)sulfanyl]-N-pyrazin-2-yl-6-(4H-1,2,4-triazol-3-ylsulfanyl)pyrazine-2-carboxamide] | –
